The subject of one test is spleen cells. As to the kind of experiment: In vitro treatment of mouse spleen cells, CD3-induced cytokine production. Type of test: cell-based. Conditions: 10 nM or 1000 nM, 5 days culture, then anti-CD3 overnight. As for the experimental part:
BALB/c female mice, 6-8 weeks old, were euthanized and spleens were removed under sterile conditions. Spleens were gently pressed through a nylon strainer. Spleen cells and remaining connective tissue mass were incubated in a 6-well plate with 4 mL of Growth Media (RPMI 1640 supplemented with 10% FCS). Compound X was added to give a final concentration of 10 nM or 1000 nM. Control groups were spleen cells without addition of Compound X. All groups were in triplicates (3 animals per group). Plates were cultured in a 37° C., 5% CO2 incubator. Once a day, 1 mL of culture media was removed from each well and replaced with 1 mL fresh growth media containing the same concentration of Compound X or fresh media only. Culture was continued for 5 days. All cells were then removed from the plates. Cells were passed through a nylon strainer to remove any aggregates, washed, counted and adjusted to 2.5×10^6/mL in growth media. To anti-CD3 coated plates (coated per the procedure described below) were added 200 μL, or 5×10^5 cells per well. Cells were cultured in a 37° C., 5% CO2 incubator overnight. Supernatants were harvested, and cytokine levels were measured by Bioplex.
For CD3 stimulation, anti-mouse CD3 mAb (BD Pharmingen clone 145-2C11) was used at 0.2 μg/mL in PBS to coat flat bottom 96-well plate at 4° C. overnight. Plates were rinsed twice with PBS before use.

In test [1] the test system is mice with established Type II collagen arthritis. The test can be described thus: Male DBA/1J mouse established Type II collagen arthritis. Type of test: in vivo. As for the experimental part:
Male DBA/1J mice (7-9 weeks old on arrival; at least 7 weeks old at time of first immunization) were housed 5 per cage and were acclimated for enough days after arrival such that all animals were at least 7 weeks old at start of study.
Mice were anesthetized with Isoflurane and given intradermal collagen (2 mg/ml) injections at the base of the tail in a volume of 150 μl (D0 and D21). On days 21-35, onset of arthritis occurred and mice were randomized into treatment groups. Randomization into each group was done after swelling was obviously established in at least one paw, and attempts were made to assure approximately equal mean scores across the groups at time of enrollment. Treatment was initiated after enrollment and continued every day for a total of 10 days as outlined in Table 3. During the ten days of treatment, clinical scores were given for each of the paws (right front, left front, right rear, and left rear) according to the scoring methods provided below. […]
• 0 Normal • 1 Minimal—small areas of resorption, not readily apparent on low magnification, rare osteoclasts in affected joints • 2 Mild—more numerous areas of resorption, not readily apparent on low magnification, osteoclasts more numerous in affected joints • 3 Moderate—obvious resorption of medullary trabecular and cortical bone without full thickness defects in cortex, loss of some medullary trabeculae, lesion apparent on low magnification, osteoclasts more numerous in affected joints • 4 Marked—Full thickness defects in cortical bone, often with distortion of profile of remaining cortical surface, marked loss of medullary bone, numerous osteoclasts, affects most joints • Severe—Full thickness defects in cortical bone and destruction of joint architecture of all joints
Histologic parameters (mean±SE) for each group were analyzed for differences using the Chi Square Test and one way ANOVA. […]

One compound from patent US20090137527A1, “Compositions and methods for modulating immune function” (Resolvyx Pharmaceuticals, Inc., priority 2007, published 2009) can be followed below.

Regarding `CC[C@@H](O)/C=C/C=C\C[C@@H](O)/C=C/C=C/C=C\[C@@H](O)CCCC(=O)O` [Compound X], in the test on spleen cells, the “CD3-induced cytokine production of spleen cells after in vitro treatment” value is listed as “inhibited”. The “clinical symptoms of arthritis (clinical scoring in the paws)” value in test [1] (once daily i.v. at both 0.5 and 5.0 μg/kg, vs arthritic control) is reported as “inhibited”. In addition, the “pannus formation and bone loss (histologic scoring)” value in test [1] (once daily i.v. at both 0.5 and 5.0 μg/kg, vs vehicle control) is “reduced”. In addition, in test [1] (twice daily 5 μg/kg i.v., vs vehicle control), the “score of bone damage (histologic scoring in joints)” value is listed as “significant decrease”.
